{"source": "patent US6767887B1", "about": "“Exendin analogues, processes for their preparation and medicaments containing them” (Roche Diagnostics GmbH, priority 1999, dated 2004)", "key": {"clonal B cell line INS-1": {"tested_on": "clonal B cell line INS-1", "assay": "Increase of cytosolic calcium concentration in INS-1 cells (Fura-2)", "format": "cell-based", "conditions": "peptide 10^−8 M, 10 mM glucose", "protocol": "Measurement of the Increase of the Cytosolic Calcium Concentration in B Cells of the Endocrine Pancreas (Clonal B Cell Line INS-1)\nINS-1 cells are cultured in RPMI 1640 medium containing 10% FCS, 10 mM HEPES buffer (pH 7.4), 2 mM L-glutamine, 100 i.U. penicillin/ml, 100 μg streptomycine/ml, 1 mM pyruvate (sodium salt) and 50 μM 2-mercaptoethanol at 37° C. in an atmosphere of 95% air and 5% CO2. After 6 to 8 days growth on plastic cell culture plates, the subconfluent cells, after rinsing once with PBS (phosphate-buffered saline), are detached from the base by incubating for four minutes at 37° C. with 0.025% trypsin and 0.27 mM EDTA in isoosmotic saline solution\nThe detached cells are resuspended in Spinner medium (culture medium as above, but containing 5% FCS and 25 mM HEPES) and incubated for two and a half hours in a Spinner bottle with a stirrer bar. Afterwards the medium is removed by centrifugation and the cells are resuspended in Spinner medium. They are then incubated for 30 minutes at 37° C. with 2 μM Fura-2/acetoxymethyl ester under the same conditions as before. The Fura loading of the cells is terminated by washing the cells once Spinner medium (room temperature). Afterwards the cells are resuspended in spinner medium at room temperature (2×10^7 cells/ml). The cells are then removed from this suspension for calcium measurements.\nThe measurements are carried out at 37° C. in a modified Krebs-Ringer buffer (KRBH) containing 136 mM NaCl, 4.8 mM KCl, 2 mM CaCl2, 1.2 MM MgSO4, 1.2 mM KH2PO4, 5 mM NaNCO3, 10 mM glucose, 250 μM sulfinpyrazone (to inhibit the Fura-2 efflux into the medium) and 25 mM HEPES buffer (adjusted to pH 7.4 with NaOH). The cell concentration is 1-2×10^6/ml. The measurements are carried out in a cuvette stirred with a stirring bar in a spectrofluorimeter at 37° C. with 1.5 ml cell suspension. The excitation wavelength is 340 nm, the emission wavelength is 505 nm. At the end of the measurement 50 μM MnCl2 is added which is followed by 100 μm DTPA (diethylenetriamine pentaacetate) in order to determine the proportion of extracellular fluorescence indicator relative to the measured fluorescence by temporarily quenching the fluorescence of extracellular Fura. After the addition of DTPA the entire Fura is firstly converted into a calcium-saturated and then into a calcium-free state to determine the calibration values Fmax (calcium-saturated) and Fmin (calcium-free) for the respective measurement. For this purpose the cells are lysed by adding 0.1% Triton X-100. The dye is saturated with calcium by contact with the high extracellular calcium concentration. […]\nThe cytosolic calcium ion concentration is calculated according to the algorithm introduced by R. Tsien and colleagues (Grynkiewicz, G., 1985): […]"}, "[1]": {"target": "dipeptidyl peptidase IV (DDP-IV) (Homo sapiens, UniProt P27487)", "sequence (P27487 whole entry)": "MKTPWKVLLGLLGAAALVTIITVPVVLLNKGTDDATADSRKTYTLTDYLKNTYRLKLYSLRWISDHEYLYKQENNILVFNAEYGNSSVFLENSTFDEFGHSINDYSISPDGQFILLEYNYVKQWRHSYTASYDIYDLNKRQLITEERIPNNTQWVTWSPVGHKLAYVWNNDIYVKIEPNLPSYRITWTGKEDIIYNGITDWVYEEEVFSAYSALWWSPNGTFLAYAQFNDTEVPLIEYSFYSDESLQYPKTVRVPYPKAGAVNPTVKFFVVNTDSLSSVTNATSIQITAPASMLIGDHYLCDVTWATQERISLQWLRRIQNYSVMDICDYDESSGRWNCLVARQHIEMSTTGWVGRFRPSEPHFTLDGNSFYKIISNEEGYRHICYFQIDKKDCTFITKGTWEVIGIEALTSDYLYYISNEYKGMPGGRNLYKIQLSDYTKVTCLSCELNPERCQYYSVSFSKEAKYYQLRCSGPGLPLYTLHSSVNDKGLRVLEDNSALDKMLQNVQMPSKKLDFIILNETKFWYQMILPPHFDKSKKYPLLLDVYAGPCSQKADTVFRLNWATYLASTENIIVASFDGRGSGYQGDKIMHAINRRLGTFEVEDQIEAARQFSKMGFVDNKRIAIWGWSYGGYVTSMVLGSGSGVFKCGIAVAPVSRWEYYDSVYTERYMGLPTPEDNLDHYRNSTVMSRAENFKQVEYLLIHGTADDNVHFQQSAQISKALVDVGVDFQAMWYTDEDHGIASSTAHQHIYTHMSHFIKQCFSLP", "method": "Renal brush border microvilli membranes (BBM) are therefore a suitable source for the relevant ectopeptidases and can be used as an in vitro test for the metabolic stability of synthetic peptides. Alternatively it is possible to use ectopeptidase preparations.\n(§1) Microvilli membranes (0.5-1 μg protein) or the respective ectopeptidase preparation (60-300 ng) were incubated with 10 μg peptide (about 3 nmol) in 100 μl HEPES buffer (50 mM, pH 7.4) which contained 50 mM NaCl. The reactions were terminated at predetermined times (duration up to 1 hour) by boiling. Subsequently the samples were centrifuged (10,000×g), diluted with 150 μl 0.1% TFA and analysed by means of reversed phase (RP) HPLC. Each sample was determined in duplicate.\nA system with the following components was used for HPLC analysis: A 2248 low pressure pump (Pharmacia-LKB, Freiburg), a WISP 10B autoinjector (Millipore-Waters, Eschborn), a UV detector SP-4 (Gynkotec, Berlin), a low pressure mixing system (Pharmacia-LKB, Freiburg) and a program manager software control (Pharmacia-LKB, Freiburg). […] After injection of 244 μl of the sample solution onto a column equilibrated with the motile solvent A, the incubation products were eluted with a linear gradient of 0% to 80% B in 80 min and detected at 215 nm UV absorption. […]"}, "[2]": {"tested_on": "brush border microvilli membranes (BBM)", "conditions": "pH 7.4", "method": "Renal brush border microvilli membranes (BBM) are therefore a suitable source for the relevant ectopeptidases and can be used as an in vitro test for the metabolic stability of synthetic peptides.\nMicrovilli membranes of the rat and pig kidney cortex are isolated by means of subcellular fractionation using the differential centrifugation method (Booth and Kenny (1975)). 4 Brush border ectopeptidases are examined fluorimetrically and other marker enzymes are measured colorimetrically in order to assess the degree of purity and the yield of membranes.\nas §1\nA system with the following components was used for HPLC analysis: A 2248 low pressure pump (Pharmacia-LKB, Freiburg), a WISP 10B autoinjector (Millipore-Waters, Eschborn), a UV detector SP-4 (Gynkotec, Berlin), a low pressure mixing system (Pharmacia-LKB, Freiburg) and a program manager software control (Pharmacia-LKB, Freiburg). […]"}, "isolated islet cells": {"tested_on": "isolated islet cells", "assay": "Insulin release from isolated islets", "format": "cell-based, mice", "protocol": "The abdomen of anaesthetised (0.3-0.5 ml nembutal/isotonic saline solution 1:4 i.p.) mice is opened by a median incision and two side incisions, the peritoneum is immobilized and cut open at the costal arch along the diaphragm. All organs are inflated and stained red by injection of a neutral red solution into the left ventricle. The pancreas is carefully removed along the stomach and duodenum up to the mesenteries. Until digestion the pancreas is placed in an ice-cooled petri dish in Hank's balanced salt solution (HBBS) and a few drops of neutral red.\nTwo pancreases are dabbed with cellulose, placed in a tube, 5 ml freshly prepared collagenase solution (collagenase (Cl. histolyticum) 0.74 U/mg, Serva, 2 mg/ml in HBBS/water 1:9, pH 7.4) is added and they are incubated for 18 minutes at 37° C. while shaking. Subsequently a centrifugation is carried out at 1000 rpm for 1 minute. The supernatant is discarded, In a second digestion step 5 ml collagenase solution (1 mg/ml) is incubated for 4 minutes, shaken and undigested tissue is sedimented. The supernatant is decanted and the whole process is repeated four to five times. The supernatant is then centrifuged for 1 minute at 1000 rpm and the collagenase solution is discarded. The remaining pellet is shaken with ice-cold HBBS and sedimented for ca. 10 minutes on ice. This wash process is repeated for a further three times. The faint pink stained islets are picked out from the washed pellets under a stereoscopic magnifying glass and transferred to culture medium (100 ml RPMI 1640 (Gibco), 1 ml glutamine, 1 ml penicillin, 1 ml Cibrobay antibiotic (Bayer), 10 ml foetal calf serum, 2 ml Hepes buffer 1 M). In order to obtain the purest possible culture, the islets are picked two to three times and transferred to fresh culture medium.\nThe islet cells from the culture medium are distributed in Eppendorff vessels containing […] stimulation buffer (118 mM NaCl, 0.2 mM NaH^2PO^4, 0.565 mM MgCl^2, 1.25 mM CaCl^2, 4.1 mM KCl, 10 mM Hepes, 1% BSA, 3.3 mM glucose; pH 7.4) in a quantity of 10 islets per Eppendorff vessel and placed in an incubator for 1 hour at 37° C. Subsequently the peptides to be tested are added and filled up to […] with stimulation buffer and incubated for one hour at 37° C. The islets are centrifuged at 1000 rpm for 1 minute. The amount of […] is measured in the supernatant using an insulin-RIA (DPC Biermann, Nauheim). Each test substance was determined in quadruplicate.\nSome exendin analogues were tested as described above on isolated islet cells for insulin secretory activity.\nInsulin Release From Isolated Islets After 1 Hour [mIU/h/10 Islets] in the Presence of 10 mM Glucose: […]"}}, "note": "Where a SMILES comes first, the peptide text is derived from it. Where no end group is shown, it is not given here. [ ]: non-standard residue; d: D form. Nle = CCCC[C@H](N)C(=O)O"}
{"compound": "10 (HGEGTFTSDLSKQMEEEAVRAFIEWLKAGR) [compound 10]", "values": [{"measurement": "Δ[Ca^2+]cyt ± SD (n = 4)", "setting": "clonal B cell line INS-1", "value": "69 ± 30", "unit": "nM"}]}
{"compound": "CCCC[C@H](NC(=O)[C@H](CCC(N)=O)NC(=O)[C@H](CCCCN)NC(=O)[C@H](CO)NC(=O)[C@H](CC(C)C)NC(=O)[C@H](CC(=O)O)NC(=O)[C@H](CO)NC(=O)[C@@H](NC(=O)[C@H](Cc1ccccc1)NC(=O)[C@@H](NC(=O)CNC(=O)[C@H](CC(=O)O)NC(=O)[C@H](C)NC(=O)[C@@H](N)Cc1c[nH]cn1)[C@@H](C)O)[C@@H](C)O)C(=O)N[C@@H](CCC(=O)O)C(=O)N[C@@H](CCC(=O)O)C(=O)N[C@@H](CCC(=O)O)C(=O)N[C@@H](C)C(=O)N[C@H](C(=O)N[C@@H](CCCNC(=N)N)C(=O)N[C@@H](CC(C)C)C(=O)N[C@@H](Cc1ccccc1)C(=O)N[C@H](C(=O)N[C@@H](CCC(=O)O)C(=O)N[C@@H](Cc1c[nH]c2ccccc12)C(=O)N[C@@H](CC(C)C)C(=O)N[C@@H](CCCCN)C(=O)N[C@@H](CC(N)=O)C(=O)NCC(=O)N[C@@H](CCCNC(=N)N)C(N)=O)[C@@H](C)CC)C(C)C", "note": "[compound 78] (H-HADGTFTSDLSKQ[Nle]EEEAVRLFIEWLKNGR-NH2)", "values": [{"measurement": "Substrate for DDP-IV", "setting": "[1]", "value": "no proteolysis"}]}
{"compound": "CCCC[C@H](NC(=O)[C@H](CCC(N)=O)NC(=O)[C@H](CCCCN)NC(=O)[C@H](CO)NC(=O)[C@H](CC(C)C)NC(=O)[C@H](CC(=O)O)NC(=O)[C@H](CO)NC(=O)[C@@H](NC(=O)[C@H](Cc1ccccc1)NC(=O)[C@@H](NC(=O)CNC(=O)[C@H](CC(=O)O)NC(=O)[C@H](CCCCN)NC(=O)[C@@H](N)Cc1c[nH]cn1)[C@@H](C)O)[C@@H](C)O)C(=O)N[C@@H](CCC(=O)O)C(=O)N[C@@H](CCC(=O)O)C(=O)N[C@@H](CCC(=O)O)C(=O)N[C@@H](C)C(=O)N[C@H](C(=O)N[C@@H](CCCNC(=N)N)C(=O)N[C@@H](CC(C)C)C(=O)N[C@@H](Cc1ccccc1)C(=O)N[C@H](C(=O)N[C@@H](CCC(=O)O)C(=O)N[C@@H](Cc1c[nH]c2ccccc12)C(=O)N[C@@H](CC(C)C)C(=O)N[C@@H](CCCCN)C(=O)N[C@@H](CC(N)=O)C(=O)NCC(=O)N[C@@H](CCCNC(=N)N)C(N)=O)[C@@H](C)CC)C(C)C", "note": "[compound 86] (H-HKDGTFTSDLSKQ[Nle]EEEAVRLFIEWLKNGR-NH2)", "values": [{"measurement": "Degradation rate", "setting": "[2]", "value": 2.05, "unit": "ng peptide/min/mg BBM"}]}
{"compound": "GLP-1-(7-36)-NH2 [GLP1-(7-36)-NH2, reference compound]", "values": [{"measurement": "Δ[Ca^2+]cyt ± SD (n = 4)", "setting": "clonal B cell line INS-1", "value": "65 ± 10", "unit": "nM"}, {"measurement": "Insulin release from isolated islets after 1 hour", "setting": "isolated islet cells; peptide 10^−7, 10 mM glucose", "value": 53.52, "unit": "mIU/h/10 Islets"}, {"measurement": "Insulin release from isolated islets after 1 hour", "setting": "isolated islet cells; peptide 10^−8, 10 mM glucose", "value": 42.78, "unit": "mIU/h/10 Islets"}, {"measurement": "Insulin release from isolated islets after 1 hour", "setting": "isolated islet cells; peptide 10^−9, 10 mM glucose", "value": 29.99, "unit": "mIU/h/10 Islets"}]}
{"compound": "[Ala^21, Arg^30]-exendin-4-(1-30)-NH2 [Seq. ID 8]", "values": [{"measurement": "Δ[Ca^2+]cyt ± SD (n = 4)", "setting": "clonal B cell line INS-1", "value": "64 ± 8", "unit": "nM"}]}
{"compound": "[H^2 Nle^14R^30]-Ex-3-(1-30)—NH2 (HHDGTFTSDLSKQ[Nle]EEEAVRLFIEWLKNGR-NH2; N-terminus assumed; SMILES CCCC[C@H](NC(=O)[C@H](CCC(N)=O)NC(=O)[C@H](CCCCN)NC(=O)[C@H](CO)NC(=O)[C@H](CC(C)C)NC(=O)[C@H](CC(=O)O)NC(=O)[C@H](CO)NC(=O)[C@@H](NC(=O)[C@H](Cc1ccccc1)NC(=O)[C@@H](NC(=O)CNC(=O)[C@H](CC(=O)O)NC(=O)[C@H](Cc1c[nH]cn1)NC(=O)[C@@H](N)Cc1c[nH]cn1)[C@@H](C)O)[C@@H](C)O)C(=O)N[C@@H](CCC(=O)O)C(=O)N[C@@H](CCC(=O)O)C(=O)N[C@@H](CCC(=O)O)C(=O)N[C@@H](C)C(=O)N[C@H](C(=O)N[C@@H](CCCNC(=N)N)C(=O)N[C@@H](CC(C)C)C(=O)N[C@@H](Cc1ccccc1)C(=O)N[C@H](C(=O)N[C@@H](CCC(=O)O)C(=O)N[C@@H](Cc1c[nH]c2ccccc12)C(=O)N[C@@H](CC(C)C)C(=O)N[C@@H](CCCCN)C(=O)N[C@@H](CC(N)=O)C(=O)NCC(=O)N[C@@H](CCCNC(=N)N)C(N)=O)[C@@H](C)CC)C(C)C) [Seq. ID 84]", "values": [{"measurement": "Insulin release from isolated islets after 1 hour", "setting": "isolated islet cells; peptide 10^−7, 10 mM glucose", "value": 48.94, "unit": "mIU/h/10 Islets"}, {"measurement": "Insulin release from isolated islets after 1 hour", "setting": "isolated islet cells; peptide 10^−8, 10 mM glucose", "value": 41.72, "unit": "mIU/h/10 Islets"}, {"measurement": "Insulin release from isolated islets after 1 hour", "setting": "isolated islet cells; peptide 10^−9, 10 mM glucose", "value": 38.76, "unit": "mIU/h/10 Islets"}, {"measurement": "Insulin release from isolated islets after 1 hour", "setting": "isolated islet cells; peptide 10^−10, 10 mM glucose", "value": 35.05, "unit": "mIU/h/10 Islets"}]}
{"compound": "[Nle^14, Arg^30]-exendin-3-(1-30)-NH2 (HSDGTFTSDLSKQ[Nle]EEEAVRLFIEWLKNGR-NH2; N-terminus assumed; SMILES CCCC[C@H](NC(=O)[C@H](CCC(N)=O)NC(=O)[C@H](CCCCN)NC(=O)[C@H](CO)NC(=O)[C@H](CC(C)C)NC(=O)[C@H](CC(=O)O)NC(=O)[C@H](CO)NC(=O)[C@@H](NC(=O)[C@H](Cc1ccccc1)NC(=O)[C@@H](NC(=O)CNC(=O)[C@H](CC(=O)O)NC(=O)[C@H](CO)NC(=O)[C@@H](N)Cc1c[nH]cn1)[C@@H](C)O)[C@@H](C)O)C(=O)N[C@@H](CCC(=O)O)C(=O)N[C@@H](CCC(=O)O)C(=O)N[C@@H](CCC(=O)O)C(=O)N[C@@H](C)C(=O)N[C@H](C(=O)N[C@@H](CCCNC(=N)N)C(=O)N[C@@H](CC(C)C)C(=O)N[C@@H](Cc1ccccc1)C(=O)N[C@H](C(=O)N[C@@H](CCC(=O)O)C(=O)N[C@@H](Cc1c[nH]c2ccccc12)C(=O)N[C@@H](CC(C)C)C(=O)N[C@@H](CCCCN)C(=O)N[C@@H](CC(N)=O)C(=O)NCC(=O)N[C@@H](CCCNC(=N)N)C(N)=O)[C@@H](C)CC)C(C)C) [Seq. ID 5]", "values": [{"measurement": "Δ[Ca^2+]cyt ± SD (n = 4)", "setting": "clonal B cell line INS-1", "value": "63 ± 8", "unit": "nM"}]}
